Literature values, collected in US20010003742A1, “Antilipemic formulation” (priority 1998, published 2001).

Conditions: gelatine itself

In the case of gelatine, the haemostatic effect is listed as “only displays a haemostatic effect after an addition of thrombin”.
